Positions of bridges follow the written chain, without caps; N, C: chain ends. No end group written: not given here.
Columns and labels:
[1] = tested on: C57B1/6J females; test: Bone mineral density increase in mice by slow release CART treatment (in vivo micro-CT, distal femur)
Procedure: In this experiment mice were treated with 3 different concentrations of CART peptide. The experiment was conducted in 12 weeks old C57B1/6J females and consisted of four experimental groups (n=5 per group). The first group of mice received placebo slow release pellets (SX-999, 60 day slow release pellets, Innovative Research of America, Sarasota, Fla.). The other three groups were treated with SX-999 slow release pellets containing either 20 μg, 50 μg or 100 μg (2×50 μg) rat CART 55-102 peptide (rCART) (Phoenix Pharmaceuticals, Inc. Belmont, Calif.). Mice were sedated with injection anaesthetics (Hypnorm (VetaPharma, Leeds, UK)/Dormicum (Roche, Mijdrecht, The Netherlands)) and the pellets were implanted subcutaneously in the neck. Bone architecture and density was determined at the distal femur at T=0 by an in vivo micro-CT measurement (Skyscan1076 micro-CT scanner, Skyscan, Kontich, Belgium). Scans were performed at 9 μm resolution. Trabecular bone analysis was performed on a 2 mm slice 150 μm proximal to the distal growth plate of the femur. In vivo micro-CT measurements were repeated at day 28 and day 60. The BMD value of the placebo group at T=0, T=28 and T=60 days was set at 100% and the BMD values of the 20 μg, 50 μg and 100 μg (2×50 μg) CART treated groups were calculated relatively to the placebo group. Values are expressed as mean±SD of the individual data. For statistical analysis the treatment groups were compared with the placebo group of the corresponding time point in a standard Student T-test (two-tailed). P<0.05 was considered as significant.

[2] = tested on: C57B1/6J females; test: CART slow release formulation vs. daily CART injections, bone mineral density in mice (in vivo micro-CT, distal femur); conditions: daily s.c. injections of 2 μg in 0.9% NaCl, 30 days
Procedure: In this experiment the effectiveness of CART peptide to improve bone mineral density via a slow release formulation was compared with daily injections of CART. The experiment was conducted in 12 weeks old C57B1/6J females and consisted of four experimental groups (n=5 per group). In the first group of mice 2 placebo slow release pellets (SX-999, 60 day pellets, Innovative Research of America, Sarasota, Fla.) were implanted subcutaneously in the neck. In the second group 2 SX-999 slow release pellets containing 50 μg rat CART55-102 (Phoenix Pharmaceuticals, Inc. Belmont, Calif.) each, were implanted subcutaneously in the neck. The other two groups received daily s.c. injections with either vehicle (0.9% NaCl) or with 2 μg rat CART55-102 peptide in 0.9% NaCl. Mice were sedated with injection anaesthetics (Hypnorm (VetaPharma, Leeds, UK)/Dormicum (Roche, Mijdrecht, The Netherlands)) and bone density was determined in the distal femur by an in vivo micro-CT measurement (Skyscan1076 micro CT scanner, Skyscan, Belgium) at T=0 and at T=30 days. Blood was collected weekly by orbita puncture to determine serum CART levels. BMD (g/cm^3) was expressed as mean±SD of the individual data. Statistical analysis was performed using the Student T-test (two-tailed). P<0.05 was considered as significant.

[3] = tested on: bovine granulosa cells; test: CART induced suppression of FSH-induced 17β-estradiol production in bovine granulosa cells; assay type: cell-based; conditions: 1 μM CART peptide, 7 days culture
Procedure: Ovaries from double muscled cows were obtained at a local abattoir and granulosa cells were collected from 3- to 5-mm follicles at random stages of the estrus cycle. Follicles were placed in culture medium (M505 medium (Gibco Invitrogen, Carlsbad, Calif., USA) supplemented with antibiotics (100 IU/ml penicillin and 0.1 mg/ml streptomycin (Invitrogen, Carlsbad, Calif., USA), 10 ng/mL insulin (Schering-Plough, Oss, The Netherlands), 4 ng/mL sodium selenite (Sigma Aldrich, St. Louis, Mo., USA), 5 μg/mL apo-transferrin (Sigma Aldrich, St. Louis, Mo., USA) and 10^−7M androstenedione (Org 6, Schering-Plough, Oss, The Netherlands)) at 37° C. Follicles were ruptured with a needle and the cells were passed through a cell strainer (70 μm nylon, Becton Dickinson, Bedford, USA). Cells were centrifuged for 10 min at 340×g and resuspended in culture medium. Cells (1×10^5 viable cells/well) were cultured in 96 wells plate for 7 days at 37° C. in a humidified atmosphere (5% CO2, 95% air) in the presence of 0, 20, 100 or 300 mUnits FSH (Org 32489, Schering-Plough, Oss, The Netherlands) in combination with […], 10^−7, […], 10^−9, 10^−10, 10^−11 or 10^−12M rat CART 55-102 (Phoenix Pharmaceuticals Inc., Belmont, Calif., USA). […] After 7 days 17β-estradiol levels were determined in the culture medium using a 17β-estradiol ELISA (Diagnostic Systems Laboratories Inc., Marburg, Germany).

## Ile-Pro-Ile-Tyr-Glu-Lys-Lys-Tyr-Gly-Gln-Val-Pro-Met-Cys-Asp-Ala-Gly-Glu-Gln-Cys-Ala-Val-Arg-Lys-Gly-Ala-Arg-Ile-Gly-Lys-Leu-Cys-Asp-Cys-Pro-Arg-Gly-Thr-Ser-Cys-Asn-Ser-Phe-Leu-Leu-Lys-Cys-Leu (IPIYEKKYGQVPMCDAGEQCAVRKGARIGKLCDCPRGTSCNSFLLKCL; disulfide 14-32, 20-40, 34-47; ends not checked) [rat CART 55-102, rat CART 55-102 peptide (rCART) (Phoenix Pharmaceuticals, Inc.)]
[1]; 50 μg rCART in SX-999 slow release pellet s.c., after 60 days
  increase in trabecular bone mineral density (BMD) as compared to the placebo group: 40-50%
[1]; 100 μg (2×50 μg) rCART in SX-999 slow release pellets s.c., after 28 days
  increase in trabecular bone mineral density (BMD) as compared to the placebo group: 50-60%
[1]; 100 μg (2×50 μg) rCART in SX-999 slow release pellets s.c., after 28 days, listed as CART peptide
  increase in trabecular bone mineral density (BMD) as compared to the placebo group: 50%
[1]; 100 μg (2×50 μg) rCART in SX-999 slow release pellets s.c., after 60 days
  increase in trabecular bone mineral density (BMD) as compared to the placebo group: 80%
[2]
  increase in BMD: did not show an increase in BMD
[3]; 100 mUnits FSH
  suppression of FSH-induced 17β-estradiol production: 1.5 fold
[3]; 300 mUnits FSH
  suppression of FSH-induced 17β-estradiol production: 3 fold

From patent US20100075893A1, “PREPARATION OF A PHARMACEUTICAL COMPOSITION FOR INCREASING BONE MINERAL DENSITY” (priority 2008, published 2010)
